Target: T1, vanilloid receptor 1 (VR1/TRPV1 receptor) (Homo sapiens, UniProt Q8NER1)
T1 construct: expressed in transfected cells; host or cells: CHO K1
Assay: Functional testing on the vanilloid receptor 1 (FLIPR Ca2+ influx assay, capsaicin stimulation)
Type: cell-based
Conditions: Cap = capsaicin; human being; Ki from IC50 by the Cheng-Prusoff equation; read-out: (f) Ki (human being) [nM] Cap
Method: Furthermore, preference may be given to compounds according to the invention that cause a 50 percent displacement of capsaicin, which is present at a concentration of 100 nM, in a FLIPR assay with CHO K1 cells which were transfected with the human VR1 gene at a concentration of less than 2,000 nM, preferably less than 1,000 nM, particularly preferably less than 300 nM, most particularly preferably less than 100 nM, even more preferably less than 75 nM, additionally preferably less than 50 nM, most preferably less than 10 nM.
In the process, the Ca^2+ influx is quantified in the FLIPR assay with the aid of a Ca^2+-sensitive dye (type Fluo-4, Molecular Probes Europe BV, Leiden, the Netherlands) in a fluorescent imaging plate reader (FLIPR, Molecular Devices, Sunnyvale, USA), as described hereinafter.
I. Functional Testing Carried Out on the Vanilloid Receptor 1 (VR1/TRPV1 Receptor) […]
The number of cells in the suspension is set to 3×10^5 per mL and 150 μL of this suspension are in each case introduced into a recess in the cell culture plates coated as described hereinbefore. In the incubator the plates are left for two to three days at 37° C., 5% by volume of CO2 and 95% relative humidity. Subsequently, the cells are loaded with 2 μM of Fluo-4 and 0.01% by volume of Pluronic F127 (Molecular Probes Europe BV, Leiden, the Netherlands) in HBSS buffer (Hank's buffered saline solution, Gibco Invitrogen GmbH, Karlsruhe, Germany) for 30 min at 37° C., washed 3 times with HBSS buffer and after further incubation for 15 minutes at room temperature used for Ca^2+ measurement in a FLIPR assay. The Ca^2+ dependent fluorescence is in this case measured before and after the addition of substances (λex=488 nm, λem=540 nm). Quantification is carried out by measuring the highest fluorescence intensity (FC, fluorescence counts) over time.
The FLIPR protocol consists of 2 substance additions. First the compounds to be tested (10 μM) are pipetted onto the cells and the Ca^2+ influx is compared with the control (capsaicin 10 μM). This provides the result in % activation based on the Ca^2+ signal after the addition of 10 μM of capsaicin (CP). After 5 minutes' incubation, 100 nM of capsaicin are applied and the Ca^2+ influx is also determined.
Desensitising agonists and antagonists lead to suppression of the Ca^2+ influx. The % inhibition is calculated compared to the maximum achievable inhibition with 10 μM of capsazepine.
Triple analyses (n=3) are carried out and repeated in at least 3 independent experiments (N=4).
Starting from the percentage displacement caused by different concentrations of the compounds to be tested of general formula I, IC50 inhibitory concentrations which cause a 50-percent displacement of capsaicin were calculated. Ki values for the test substances were obtained by conversion by means of the Cheng-Prusoff equation (Cheng, Prusoff; Biochem. Pharmacol. 22, 3099-3108, 1973).
The affinity of the compounds according to the invention for the vanilloid receptor 1 (VR1/TRPV1 receptor) was determined as described hereinbefore (pharmacological method I).

T1 sequence (Q8NER1 whole entry): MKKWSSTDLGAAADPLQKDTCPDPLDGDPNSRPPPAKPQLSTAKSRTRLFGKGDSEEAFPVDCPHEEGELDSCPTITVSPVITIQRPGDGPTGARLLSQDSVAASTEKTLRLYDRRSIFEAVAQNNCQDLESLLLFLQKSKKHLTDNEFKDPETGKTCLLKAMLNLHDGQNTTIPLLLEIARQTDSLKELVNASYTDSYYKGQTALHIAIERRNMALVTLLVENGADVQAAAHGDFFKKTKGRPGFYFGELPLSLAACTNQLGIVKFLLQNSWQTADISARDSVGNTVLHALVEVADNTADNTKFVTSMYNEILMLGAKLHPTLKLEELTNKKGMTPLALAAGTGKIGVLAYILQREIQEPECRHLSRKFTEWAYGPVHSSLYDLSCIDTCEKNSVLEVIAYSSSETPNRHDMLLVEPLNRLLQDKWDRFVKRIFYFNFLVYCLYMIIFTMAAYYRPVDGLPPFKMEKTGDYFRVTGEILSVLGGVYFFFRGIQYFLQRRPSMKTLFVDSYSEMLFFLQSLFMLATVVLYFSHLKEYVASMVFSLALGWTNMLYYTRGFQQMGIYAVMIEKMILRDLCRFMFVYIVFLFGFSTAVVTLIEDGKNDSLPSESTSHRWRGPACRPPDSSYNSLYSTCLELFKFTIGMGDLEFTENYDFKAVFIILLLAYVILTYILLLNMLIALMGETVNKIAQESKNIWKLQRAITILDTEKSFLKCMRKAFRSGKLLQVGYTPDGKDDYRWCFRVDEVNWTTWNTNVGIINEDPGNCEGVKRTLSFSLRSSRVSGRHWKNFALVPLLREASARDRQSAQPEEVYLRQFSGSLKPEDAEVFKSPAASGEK

- Ki: 41 nM
SMILES: CC(C(=O)NCc1ccc(C(F)(F)F)nc1-c1cccs1)c1ccc(CNS(C)(=O)=O)c(F)c1 (stereo not shown) [Example 47, 2-(3-fluoro-4-(methylsulfonamidomethyl)phenyl)-N-((2-(thiophen-2-yl)-6-(trifluoromethyl)pyridin-3-yl)methyl)propanamide]

Source: US20130079373A1, “Substituted Methanesulfonamide Derivatives as Vanilloid Receptor Ligands” (priority 2011, published 2013)
